ChEMBL document CHEMBL1938296, “Steroidal C-21 heteroaryl thioethers (Part 2): discovery of orally bioavailable selective glucocorticoid receptor modulators (dissociated steroids)” (Bioorg Med Chem Lett, 2012)

Experiments:
Glucocorticoid receptor [1] = target: T1, Glucocorticoid receptor (Homo sapiens, UniProt P04150); assay: Transactivation of glucocorticoid receptor in human HepG2 cells assessed as induction of TAT measuring degradation of tyrosine to p-hydroxy phenyl pyruvate; type: cell-based; conditions: read-out: IC50 (the source's name)
T1 sequence (P04150 whole entry): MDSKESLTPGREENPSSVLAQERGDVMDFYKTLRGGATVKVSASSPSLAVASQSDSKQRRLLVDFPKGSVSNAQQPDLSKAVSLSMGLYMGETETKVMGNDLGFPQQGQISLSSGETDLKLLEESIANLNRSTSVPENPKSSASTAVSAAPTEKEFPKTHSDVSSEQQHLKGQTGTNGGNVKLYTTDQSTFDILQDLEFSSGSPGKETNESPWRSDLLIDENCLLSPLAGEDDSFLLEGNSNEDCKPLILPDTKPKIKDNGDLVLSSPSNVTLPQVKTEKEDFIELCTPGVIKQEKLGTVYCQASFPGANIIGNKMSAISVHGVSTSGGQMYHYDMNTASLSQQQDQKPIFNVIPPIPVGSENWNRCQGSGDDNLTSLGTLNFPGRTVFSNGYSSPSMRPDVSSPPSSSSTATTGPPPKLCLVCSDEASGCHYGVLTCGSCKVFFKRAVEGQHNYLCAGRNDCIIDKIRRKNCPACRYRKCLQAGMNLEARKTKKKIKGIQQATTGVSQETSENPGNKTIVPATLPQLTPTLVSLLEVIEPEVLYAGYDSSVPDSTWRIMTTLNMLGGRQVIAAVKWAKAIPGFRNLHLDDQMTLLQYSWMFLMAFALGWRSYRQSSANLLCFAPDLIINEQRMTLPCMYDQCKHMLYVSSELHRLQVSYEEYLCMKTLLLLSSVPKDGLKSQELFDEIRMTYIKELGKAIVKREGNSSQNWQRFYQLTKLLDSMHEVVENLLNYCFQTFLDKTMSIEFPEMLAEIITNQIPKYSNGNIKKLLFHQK

Glucocorticoid receptor [2] = target: T1, Glucocorticoid receptor; assay: Transactivation of glucocorticoid receptor in human HepG2 cells assessed as induction of TAT measuring degradation of tyrosine to p-hydroxy phenyl pyruvate at 1 uM relative to untreated control; type: cell-based; conditions: hepg2, 1 µM
Glucocorticoid receptor [3] = target: T2, Glucocorticoid receptor (Rattus norvegicus, UniProt P06536); assay: Transactivation of glucocorticoid receptor in rat H42E cells assessed as induction of TAT measuring degradation of tyrosine to p-hydroxy phenyl pyruvate at 1 uM relative to prednisolone; type: cell-based; conditions: read-out: Efficacy
T2 sequence (P06536 whole entry): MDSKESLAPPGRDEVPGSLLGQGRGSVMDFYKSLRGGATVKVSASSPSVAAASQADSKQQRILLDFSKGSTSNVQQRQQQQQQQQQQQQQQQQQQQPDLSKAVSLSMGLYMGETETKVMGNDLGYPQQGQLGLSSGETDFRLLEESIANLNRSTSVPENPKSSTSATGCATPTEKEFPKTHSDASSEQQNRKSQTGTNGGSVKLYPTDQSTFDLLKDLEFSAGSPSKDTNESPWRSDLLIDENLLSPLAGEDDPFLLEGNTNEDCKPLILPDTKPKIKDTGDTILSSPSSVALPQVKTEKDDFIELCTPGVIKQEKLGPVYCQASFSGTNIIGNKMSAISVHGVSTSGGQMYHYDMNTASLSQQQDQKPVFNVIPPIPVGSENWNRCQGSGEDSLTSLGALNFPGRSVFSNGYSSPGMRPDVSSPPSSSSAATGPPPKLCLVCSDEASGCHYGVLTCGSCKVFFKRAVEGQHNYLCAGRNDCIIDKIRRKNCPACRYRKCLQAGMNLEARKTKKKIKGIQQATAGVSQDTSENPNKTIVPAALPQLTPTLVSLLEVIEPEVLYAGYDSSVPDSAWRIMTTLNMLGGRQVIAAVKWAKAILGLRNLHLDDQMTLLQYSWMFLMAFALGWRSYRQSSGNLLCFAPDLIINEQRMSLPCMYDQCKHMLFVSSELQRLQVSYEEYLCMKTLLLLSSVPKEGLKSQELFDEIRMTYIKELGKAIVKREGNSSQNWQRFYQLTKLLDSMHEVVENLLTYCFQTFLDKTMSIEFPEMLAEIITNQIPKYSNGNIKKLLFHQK

Glucocorticoid receptor [4] = target: T2, Glucocorticoid receptor; assay: Transactivation of glucocorticoid receptor in rat H42E cells assessed as induction of TAT measuring degradation of tyrosine to p-hydroxy phenyl pyruvate; type: cell-based; conditions: read-out: IC50 (the source's name)
Glucocorticoid receptor [5] = target: T1, Glucocorticoid receptor; assay: Transrepression activity at glucocorticoid receptor in human H292 cells assessed as inhibition of TNF-stimulated IL-8 production; type: cell-based
Rattus norvegicus [6] = assay: Toxicity in Brown Norway rat allergic lung inflammation model assessed as decrease in thymus weight at 10 mg/kg, po for 3 days; type: organism-based; parameters: dose 10 mg/kg, route oral; scale not given: the % may be the effect or the level left; conditions: in vivo, 72 h
[7] = AUC in Brown Norway rat at 10 mg/kg, po; type: ADME, organism-based; parameters: dose 10 mg/kg, route oral; conditions: plasma
Rattus norvegicus [8] = assay: Antiinflammatory activity against Brown Norway rat allergic lung inflammation model assessed as total cell inhibition at 10 mg/kg, po for 3 days; type: functional; parameters: scale not given: the % may be the effect or the level left

Row | Structure (SMILES) | EC50 (Glucocorticoid receptor [1]) | Efficacy (Glucocorticoid receptor [2]) | Emax at 1 µM (Glucocorticoid receptor [3]) | EC50 (Glucocorticoid receptor [4]) | IC50 (Glucocorticoid receptor [5]) | Activity (Rattus norvegicus [6]) | AUC [7] | Activity (Rattus norvegicus [8])
1 | C[C@]12C=CC(=O)C=C1CC[C@@H]1[C@@H]2[C@@H](O)C[C@@]2(C)[C@H]1CC[C@]2(O)C(=O)CSc1ccccn1 | 0.238 µM | 22% | 23% | 0.707 µM | 0.0438 µM |  |  | 
2 | C[C@]12C=CC(=O)C=C1CC[C@@H]1[C@@H]2[C@@H](O)C[C@@]2(C)[C@H]1CC[C@]2(O)C(=O)CSc1nc2ncccc2o1 |  | 21% | 29% |  | 0.0172 µM | 9% | 2.94 µg·h/mL | 56%
3 | CCn1c(SCC(=O)[C@@]2(O)CC[C@H]3[C@@H]4CCC5=CC(=O)C=C[C@]5(C)[C@H]4[C@@H](O)C[C@@]32C)nc2ccccc21 |  | 9% | 10% |  | 0.0413 µM |  |  | 
4 | C[C@@H]1C[C@H]2[C@@H]3CCC4=CC(=O)C=C[C@]4(C)[C@H]3[C@@H](O)C[C@]2(C)[C@@]1(O)C(=O)CSc1nnc(-c2ccccc2)o1 | 0.0803 µM | 57% | 65% | 0.74 µM | 0.0051 µM |  |  | 
5 | C[C@]12C=CC(=O)C=C1CC[C@@H]1[C@@H]2[C@@H](O)C[C@@]2(C)[C@H]1CC[C@]2(O)C(=O)CSc1ncc2ccccc2n1 |  | 10% | 2% |  | 0.0687 µM | 11% | 0.606 µg·h/mL | 46%
6 | C[C@@H]1C[C@H]2[C@@H]3CCC4=CC(=O)C=C[C@]4(C)[C@H]3[C@@H](O)C[C@]2(C)[C@@]1(O)C(=O)CSc1nc2ccccc2s1 | 1 µM | 62% | 35% | 0.23 µM | 0.0058 µM |  |  | 
7 | C[C@@H]1C[C@H]2[C@@H]3CCC4=CC(=O)C=C[C@]4(C)[C@H]3[C@@H](O)C[C@]2(C)[C@@]1(O)C(=O)CSc1ccc2ccccc2n1 |  | 19% | 45% | 0.0192 µM | 0.0465 µM | 66% | 5.28 µg·h/mL | 73%
8 | Cc1cccc(SCC(=O)[C@@]2(O)[C@H](C)C[C@H]3[C@@H]4CCC5=CC(=O)C=C[C@]5(C)[C@H]4[C@@H](O)C[C@@]32C)n1 |  | 33% | 29% |  | 0.00169 µM |  |  | 
9 | C[C@@H]1C[C@H]2[C@@H]3CCC4=CC(=O)C=C[C@]4(C)[C@H]3[C@@H](O)C[C@]2(C)[C@@]1(O)C(=O)CSc1nc2cccnc2s1 | 0.722 µM | 27% | 13% | 0.0241 µM | 0.007 µM | 75% | 11.9 µg·h/mL | 75%
10 | C[C@]12C=CC(=O)C=C1CC[C@@H]1[C@@H]2[C@@H](O)C[C@@]2(C)[C@H]1CC[C@]2(O)C(=O)CSc1nc2ncccc2[nH]1 |  | 7% | 2% |  | 0.0572 µM |  |  | 
11 | C[C@@H]1C[C@H]2[C@@H]3CCC4=CC(=O)C=C[C@]4(C)[C@H]3[C@@H](O)C[C@]2(C)[C@@]1(O)C(=O)CSc1nccc2ccccc12 |  | 8% | 6% |  | 0.0176 µM |  |  | 
12 | C[C@@H]1C[C@H]2[C@@H]3CCC4=CC(=O)C=C[C@]4(C)[C@H]3[C@@H](O)C[C@]2(C)[C@@]1(O)C(=O)CSc1cnc2ccccc2n1 |  | 54% | 3% |  | 0.0379 µM | 65% | 1.95 µg·h/mL | 85%
13 | Cc1ccnc(SCC(=O)[C@@]2(O)CC[C@H]3[C@@H]4CCC5=CC(=O)C=C[C@]5(C)[C@H]4[C@@H](O)C[C@@]32C)n1 |  | 6% | 6% |  | 0.0114 µM |  |  | 
14 | C[C@]12C=CC(=O)C=C1CC[C@@H]1[C@@H]2[C@@H](O)C[C@@]2(C)[C@H]1CC[C@]2(O)C(=O)CSc1nc2ccccc2o1 |  | 22% | 32% |  | 0.0135 µM |  | 0.026 µg·h/mL | 
15 | C[C@]12C=CC(=O)C=C1CC[C@@H]1[C@@H]2[C@@H](O)C[C@@]2(C)[C@H]1CC[C@]2(O)C(=O)CSc1nc(-c2ccccc2)cs1 |  | 42% | 9% |  | 0.305 µM |  |  | 
16 | C[C@@H]1C[C@H]2[C@@H]3CCC4=CC(=O)C=C[C@]4(C)[C@H]3[C@@H](O)C[C@]2(C)[C@@]1(O)C(=O)CSc1nc2ccccc2n1C |  | 13% | 2% |  | 0.0693 µM |  |  | 
17 | C[C@@H]1C[C@H]2[C@@H]3CCC4=CC(=O)C=C[C@]4(C)[C@H]3[C@@H](O)C[C@]2(C)[C@@]1(O)C(=O)CSc1ncnc2ccccc12 |  | 30% | 8% |  | 0.0235 µM |  |  | 
18 | C[C@@H]1C[C@H]2[C@@H]3CCC4=CC(=O)C=C[C@]4(C)[C@H]3[C@@H](O)C[C@]2(C)[C@@]1(O)C(=O)CSc1nc2ncccc2o1 |  | 32% | 37% | 0.135 µM | 0.006 µM |  |  | 
19 | C[C@]12C=CC(=O)C=C1CC[C@@H]1[C@@H]2[C@@H](O)C[C@@]2(C)[C@H]1CC[C@]2(O)C(=O)CSc1nc2cccnc2s1 |  | 6% | 7% |  | 0.118 µM |  |  | 
20 | C[C@@H]1C[C@H]2[C@@H]3CCC4=CC(=O)C=C[C@]4(C)[C@H]3[C@@H](O)C[C@]2(C)[C@@]1(O)C(=O)CO | 0.0157 µM | 125% |  |  | 0.0016 µM |  |  | 
21 | C[C@]12C=CC(=O)C=C1CC[C@@H]1[C@@H]2[C@@H](O)C[C@@]2(C)[C@H]1CC[C@]2(O)C(=O)CSc1nc2ccccc2s1 |  |  | 19% |  |  | 15% | 1.22 µg·h/mL | 45%
22 | C[C@@H]1C[C@H]2[C@@H]3CCC4=CC(=O)C=C[C@]4(C)[C@H]3[C@@H](O)C[C@]2(C)[C@@]1(O)C(=O)CSc1nc2ccccc2o1 |  |  |  |  | 0.0044 µM |  |  | 
23 | C[C@@H]1C[C@H]2[C@@H]3CCC4=CC(=O)C=C[C@]4(C)[C@H]3[C@@H](O)C[C@]2(C)[C@@]1(O)C(=O)CSc1nc2ccccc2[nH]1 |  | 30% | 3% |  | 0.036 µM |  |  | 
24 | C[C@]12C=CC(=O)C=C1CC[C@@H]1[C@@H]2[C@@H](O)C[C@@]2(C)[C@H]1CC[C@]2(O)C(=O)CSc1ccc2ccccc2n1 | 0.262 µM | 52% | 56% | 0.361 µM | 0.0702 µM | 0% | 1.2 µg·h/mL | 21%
